In series [1] the test system is anti-miR-21 oligo(2′-O-methylribonucleotide). The series can be described thus: DLS of dendriplexes with anti-miR-21 oligonucleotide. The note with it: for mean diameter of dendriplex: 0.9% NaCl. It counts as physicochemical. The procedure:
Dendriplexes were characterized by DLS using Zetasizer Nano-S (Malvern Panalytical, UK) equipped with a 632.8 nm laser, applying detection angle 173°. Mean diameters from the intensity-weighted size distribution are given. Average results from three consecutive sets of measurements generated by Malvern Zetasizer Software version 7.13 are presented.
Amphiphilic dendrons (1.5–73 μM) were mixed with the anti-miR-21:5′-m([…]) (500 nM) in 0.9% NaCl solution in milli-Q water. The dendrons’ concentrations were chosen to attain the charge ratio (CR, the ratio of cations over anions in the sample) of 1.2, 2.5, 5, 10, or 20. The samples were incubated for 15 min at rt prior to measurements.

Series [2] concerns K. pneumoniae ESBL+—clinical isolate C1914. Kind of series: Microdilution broth MIC. Format: cell-based. Conditions: Klebsiella pneumoniae, 24 h. The procedure:
(§1) In vitro antibacterial activity of the prepared amp-DDNs (DnP6-1C12, DnP3-1C12, DnP3-2C12, and DnP3-2C18) was tested on a panel of four G+ (Staphylococcus aureus CCM 4516, methicillin-resistant S. aureus clinical isolate C1923, Staphylococcus epidermidis clinical isolate C1936, and vancomycin-resistant Enterococcus faecium clinical isolate S2484) and four G-bacterial strains (Escherichia coli K12, CCM 7929, E. coli clinical isolate A1235, extended-spectrum β-lactamase-producing (ESBL+) Klebsiella pneumoniae clinical isolate C1914, and multiresistant Pseudomonas aeruginosa clinical isolate A1245). CCM collection strains were obtained from the Czech Collection of Microorganisms. All clinical isolates were obtained during routine procedures in the clinical laboratory at the University Hospital Hradec Králové. All strains were stored at −70 °C in the Cryobank according to the manufacturer’s instructions. Subsequently, when needed, each bacterial strain was inoculated and cultivated on Mueller–Hinton agar (HiMedia, Cadersky-Envitek, Prague, Czech Republic).
(§2) The antibacterial susceptibility was determined by a microdilution broth method according to standard M07-A10,[55] and the optimized protocol has been published previously.[56],[57] Briefly, Mueller–Hinton broth (MHB) adjusted to pH 7.4 (±0.2) was used as the test medium. […] The wells of the microdilution tray contained 200 μL of the MHB with 2-fold serial dilutions of the compounds and were inoculated with 10 μL of the bacterial suspension. The bacterial suspensions were controlled densitometrically to reach 1.5 × 10^8 viable CFU per 1 mL. The minimum inhibitory concentration (MIC) values, defined as 95% inhibition of bacterial growth, were determined after 24 h of incubation at 35 °C ± 1 °C.

For series [3], the system named is E. faecium VRE—clinical isolate S2484. The series can be described thus: Microdilution broth MIC. It counts as cell-based. The note with it: Enterococcus faecium, 24 h. The procedure:
as §1, §2

In series [4] the test system is P. aeruginosa MR—clinical isolate A1245. Kind of series: Microdilution broth MIC. Format: cell-based. The note with it: Pseudomonas aeruginosa, 24 h. The procedure: as §1, §2
For series [5], the system named is S. epidermidis—clinical isolate C1936. The series can be described thus: Microdilution broth MIC. Format: cell-based. Conditions: Staphylococcus epidermidis, 24 h. The procedure:
as §1, §2

Series [6] has as its system E. coli K12, CCM 7929. Kind of series: Microdilution broth MIC. It counts as cell-based. Conditions: Escherichia coli. The procedure:
as §1, §2

Series [7] concerns S. aureus CCM 4516. The series can be described thus: Microdilution broth MIC. Conditions: Staphylococcus aureus. Format: cell-based. The procedure:
as §1, §2

Series [8] relates to E. coli—clinical isolate A1235. Kind of series: Microdilution broth MIC. Format: cell-based. The note with it: Escherichia coli, 24 h. The procedure: as §1, §2
Series [9] deals with S. aureus MRSA—clinical isolate C1926. The series can be described thus: Microdilution broth MIC. The note with it: Staphylococcus aureus, 24 h. Format: cell-based.
Series [10] can be described thus: Dynamic light scattering (DLS/MADLS) of micelles in physiological solution. Format: physicochemical. The procedure: The size of micelles and micellar aggregates was estimated by the dynamic light scattering (DLS) method using NanoBrook OMNI ZetaPALS (Brookhaven Instruments, USA) with a detection angle 90° and 640 nm laser. The presented diameters are mean values from the intensity-weighted size distribution. The composition of the samples was as follows: dendron (1.0 mM) and NaCl (0.9%) in deionized water. The solutions were sonicated for 30 min, filtered through 0.45 μm Nylon syringe filters (Avantor, USA), placed in standard polystyrene cuvettes (BI-SCP, Brookhaven Instruments), and stored at 4 °C. All measurements were conducted at 25 °C. Measurement time was set to 5 min, and each measurement was repeated 5 times. The analysis of data was performed using Brookhaven Instruments software Particle Solutions v3.6.07136.
MADLS and size dependence on concentration and pH were measured on Zetasizer Ultra Red (Malvern Panalytical, UK) equipped with a 632.8 nm laser, applying detection angles 12.78°, 90°, and 174.7° in the case of MADLS measurements and 12.78° for size dependence measurements. MADLS and concentration dependence were measured in DTS0012 polystyrene cuvettes (Malvern Panalytical, UK); pH dependence was studied by acidobasic titration in DTS1070 folded capillary Zeta cell, using MPT-3 Multipurpose Titrator and DEG0003 Auto Degasser (all Malvern Panalytical, UK). The concentration dependence measurement started at 1.0 mM and the samples were diluted 2-fold until the minimum concentration 0.06 mM. For each concentration, the measurement was repeated 3 times giving 15 measurements in total. The pH dependence measurement started at pH 12; the titration was performed with a step of 2 and at each step, the measurement was repeated 3 times, giving 18 measurements in total. Malvern Panalytical software ZS Xplorer version 3.3.1.5 was used for the analysis of data.

Where [11] appears, read: 95% inhibition of growth, read-out: MIC.
Where [12] appears, read: CCM7929, 24 h, 95% inhibition of growth, read-out: MIC.
Where [13] appears, read: CCM4516, 24 h, 95% inhibition of growth, read-out: MIC.

Where two headings read alike, the source gives them in different places.

For the compound `CCCCCCCCCCCCCCCCCCNC(=O)c1cc(OCCC[Si](CCCSCC(=O)NCCC[P+](c2ccccc2)(c2ccccc2)c2ccccc2)(CCCSCC(=O)NCCC[P+](c2ccccc2)(c2ccccc2)c2ccccc2)CCCSCC(=O)NCCC[P+](c2ccccc2)(c2ccccc2)c2ccccc2)cc(OCCC[Si](CCCSCC(=O)NCCC[P+](c2ccccc2)(c2ccccc2)c2ccccc2)(CCCSCC(=O)NCCC[P+](c2ccccc2)(c2ccccc2)c2ccccc2)CCCSCC(=O)NCCC[P+](c2ccccc2)(c2ccccc2)c2ccccc2)c1` [DnP6-1C18], the PI of dendriplex was found to be 0.05 in series [1] (CR 1.2), 0.3 in [1] (CR 2.5), 0.3 in series [1] (CR 5) and 0.3 in [1] (CR 10). The “mean diameter of dendriplex” value was 0.18 μm in series [1] (CR 1.2, anti-miR-21 500 nM); greater than 1 μm in series [1] (CR 2.5, anti-miR-21 500 nM); greater than 1 μm in series [1] (CR 5, anti-miR-21 500 nM); greater than 1 μm in series [1] (CR 10, anti-miR-21 500 nM). For the same compound, the MIC was greater than 6.25 µM in series [2]; 6.25 µM in [3]; greater than 6.25 µM in series [4]; 6.25 µM in series [5]; greater than 6.25 µM in series [6] (CCM7929, 24 h); 6.25 µM in [7] (CCM4516, 24 h). For the same compound, the MIC is greater than 6.25 µM in [8] and 6.25 µM in [9].
For the compound `CCCCCCCCCCCCCCCCCCNC(=O)c1ccc(OCCC[Si](CCCSCC(=O)NCCC[P+](c2ccccc2)(c2ccccc2)c2ccccc2)(CCCSCC(=O)NCCC[P+](c2ccccc2)(c2ccccc2)c2ccccc2)CCCSCC(=O)NCCC[P+](c2ccccc2)(c2ccccc2)c2ccccc2)cc1` [DnP3-1C18], the PI of dendriplex turned out to be 0.14 in [1] (CR 1.2), 0.2 in series [1] (CR 2.5), 0.4 in [1] (CR 5) and 0.3 in series [1] (CR 10). Also, the “mean diameter of dendriplex” value in series [1] (CR 1.2, anti-miR-21 500 nM) is on record as 0.23 μm; in series [1] (CR 2.5, anti-miR-21 500 nM), 0.5 μm; in series [1] (CR 5, anti-miR-21 500 nM), greater than 1 μm; in [1] (CR 10, anti-miR-21 500 nM), greater than 1 μm. Also, the MIC is greater than 6.25 µM in series [2]; 6.25 µM in [3]; greater than 6.25 µM in [4]; 3.13 µM in series [5] (setting [11]); greater than 6.25 µM in series [6] (setting [12]); 6.25 µM in series [7] (setting [13]). The values for the minimum inhibitory concentration (MIC) in series [8] (setting [11]) and in series [9] were greater than 6.25 µM and 6.25 µM, respectively.
In the case of `CCCCCCCCCCCCNC(=O)c1ccc(OCCC[Si](CCCSCC(=O)NCCC[P+](c2ccccc2)(c2ccccc2)c2ccccc2)(CCCSCC(=O)NCCC[P+](c2ccccc2)(c2ccccc2)c2ccccc2)CCCSCC(=O)NCCC[P+](c2ccccc2)(c2ccccc2)c2ccccc2)cc1` [DnP3-1C12], the PI of dendriplex is 0.07 in series [1] (CR 1.2), 0.2 in [1] (CR 2.5), 0.3 in series [1] (CR 5) and 0.1 in series [1] (CR 10). In addition, the “mean diameter of dendriplex” value is reported as 0.14 μm in [1] (CR 1.2, anti-miR-21 500 nM); 0.9 μm in series [1] (CR 2.5, anti-miR-21 500 nM); greater than 1 μm in series [1] (CR 5, anti-miR-21 500 nM); greater than 1 μm in series [1] (CR 10, anti-miR-21 500 nM). Besides, the MIC in series [2] was greater than 12.5 µM; in [3], 1.15 µM; in [4], greater than 12.5 µM; in series [5] (setting [11]), 1.56 µM; in series [6] (setting [12]), 6.25 µM; in [7] (setting [13]), 3.13 µM. The values for the MIC in [8] (setting [11]) and in series [9] were 12.5 µM and 3.13 µM, respectively.
Consider `CCCCCCCCCCCCNC(=O)c1cc(OCCC[Si](CCCSCC(=O)NCCC[P+](c2ccccc2)(c2ccccc2)c2ccccc2)(CCCSCC(=O)NCCC[P+](c2ccccc2)(c2ccccc2)c2ccccc2)CCCSCC(=O)NCCC[P+](c2ccccc2)(c2ccccc2)c2ccccc2)cc(OCCC[Si](CCCSCC(=O)NCCC[P+](c2ccccc2)(c2ccccc2)c2ccccc2)(CCCSCC(=O)NCCC[P+](c2ccccc2)(c2ccccc2)c2ccccc2)CCCSCC(=O)NCCC[P+](c2ccccc2)(c2ccccc2)c2ccccc2)c1` [DnP6-1C12], for which the PI of dendriplex worked out at 0.08 in series [1] (CR 1.2), 0.2 in series [1] (CR 2.5), 0.10 in [1] (CR 5) and 0.05 in [1] (CR 10). Besides, the “mean diameter of dendriplex” value in [1] (CR 1.2, anti-miR-21 500 nM) is given as 0.22 μm; in [1] (CR 2.5, anti-miR-21 500 nM), 0.8 μm; in series [1] (CR 5, anti-miR-21 500 nM) it was 0.8 μm; in series [1] (CR 10, anti-miR-21 500 nM) it was 0.8 μm. Also, the minimal inhibitory concentration (MIC) in series [2] was 12.5 µM; in [3], 3.13 µM; in [4] it was no less than 12.5 µM; in series [5], 1.56 µM; in series [6] (CCM7929, 24 h) it was 6.25 µM; in [7] (CCM4516, 24 h), 6.25 µM. The MIC in [8] and in series [9] was 6.25 µM throughout.
On to `CCCCCCCCCCCCCCCCCCNC(=O)c1cc(OCCC[Si](CCCSCC(=O)NCCC[P+](c2ccccc2)(c2ccccc2)c2ccccc2)(CCCSCC(=O)NCCC[P+](c2ccccc2)(c2ccccc2)c2ccccc2)CCCSCC(=O)NCCC[P+](c2ccccc2)(c2ccccc2)c2ccccc2)cc(C(=O)NCCCCCCCCCCCCCCCCCC)c1` [DnP3-2C18], for which the PI of dendriplex came to 0.12 in series [1] (CR 1.2); 0.2 in series [1] (CR 2.5); 0.3 in series [1] (CR 5); 0.23 in series [1] (CR 10); 0.29 in [1] (CR 20). In addition, the “mean diameter of dendriplex” value in series [1] (CR 1.2, anti-miR-21 500 nM) is 0.20 μm; in [1] (CR 2.5, anti-miR-21 500 nM) it was 0.9 μm; in series [1] (CR 5, anti-miR-21 500 nM), greater than 1 μm; in series [1] (CR 10, anti-miR-21 500 nM), 0.22 μm; in series [1] (CR 20, anti-miR-21 500 nM), 0.17 μm. In addition, the PDI entry in [10] (1.0 mM dendron, 0.9% NaCl) was “≈ 0.2”. Moreover, the “mean size (DLS, intensity-weighted)” value stood at 14 nm in series [10] (1.0 mM dendron, 0.9% NaCl, 25 °C, start of testing period) and 26 nm in [10] (1.0 mM dendron, 0.9% NaCl, after 75 day testing period, stored at 4 °C). In [10] (aggregates), the “mean size of the second population (MADLS)” value is 80 nm. Further, the “mean diameter of the smaller particles (MADLS)” value in series [10] (isolated micelles) is 11.8 nm. For the same compound, the MIC is greater than 12.5 µM in [2]; greater than 12.5 µM in series [3]; greater than 12.5 µM in [4]; greater than 12.5 µM in [5]; greater than 12.5 µM in [6] (CCM7929, 24 h); greater than 12.5 µM in series [7] (CCM4516, 24 h). Also, the MIC in series [8] and in [9] was greater than 12.5 µM each time.

The values above are taken from paper PMC11632778, “Adaptive Synthesis, Supramolecular Behavior, and Biological Properties of Amphiphilic Carbosilane-Phosphonium Dendrons with Tunable Structure” (Biomacromolecules, 2024).
